Assay [1] has as its target T1, BRD2 (Homo sapiens, UniProt P25440).
T1 construct: endogenous in cells; host or cells: HEK293T
Nature of the assay: Proteome-wide SILAC MS protein abundance in HEK293T cells: BRD2. It is filed as cell-based. To be noted: KB02-JQ1 20 μM, 24 hours. As for the experimental part: HEK293T light and heavy SILAC cells were treated with DMSO and KB02-JQ1 (20 μM) or KB02-SLF (2 μM) for 24 hours, respectively. Light and heavy cells were collected and lysed in 1% NP-40 lysis buffer with complete protease inhibitor cocktail. Cells were vortexed and sonicated for 5 pulses (40%, 4). The supernatant was collected after centrifugation at 16,000 g for 10 min at 4° C. Protein concentration was determined by DC assay. 50 μg proteome from light and heavy samples were mixed, followed by methanol/chloroform precipitation. […] Next, the ratio of the peak areas under the light and heavy signals (signal-to-noise ratio>2.5) was calculated. […] In addition, peptides detected as ‘singletons,’ where only the heavy ion of a peptide pair was identified, but that cleared all other filtering parameters, were given a default assigned ratio of ‘20,’ which is defined as any measured ratio that is ≥20 and is the maximum ratio reported here.” The median SILAC ratios from quantified peptides were used as measures of protein abundance. The following quality filters were further applied to generate the plot: (1) proteins must have at least two quantified peptides; (2) proteins must be present in both replicates; (3) for each protein, the standard deviation of measured ratios of peptides must be <1.0.

The target in assay [2] is FLAG-FKBP12_NLS (Homo sapiens, UniProt P62942). The assay is described as follows: Anti-FLAG western blot of stably expressed nuclear FKBP12 (FLAG-FKBP12_NLS) in HEK293T cells. It counts as cell-based. Set-up: expressed in transfected cells; host or cells: HEK293T, MDA-MB-231 and HEK293 DCAF16+/+ and DCAF16-/- clones (lentiviral pCDH-CMV-MCS-EF1-Puro). Particulars: HEK293T. From the text:
FLAG-tagged variants of FKBP12 (FLAG-FKBP12) or (2) FKBP12 with a C-terminal nuclear localization sequence (FLAG-FKBP12_NLS) were then stably expressed in HEK293T cells to provide cell models for evaluating cytosolic- and nuclear-localized E3-mediated degradation pathways, respectively.
FLAG-FKBP12 or FLAG-FKBP12_NLS lentivirus was generated by co-transfection of FLAG-FKBP12 or FLAG-FKBP12_NLS, pCMV-dR8.2 and pMD2.G into HEK 293T cells using FuGene 6 transfection reagent (Promega). Virus-containing medium were collected 48 h after transfection, filtered with […] filter, and used to transduce HEK293T and MDA-MB-231 cells in the presence of 10 μg/mL polybrene (Santa Cruz). 72 h after transduction, puromycin (2 μg/mL) was added to cells. HEK293T cells stably expressing FLAG-FKBP12 or FLAG-FKBP12_NLS were obtained after puromycin selection for 7 days. HEK293T cells stably expressing pCDH empty vector were generated in parallel as control.
shRNA lentivirus was generated by co-transfection of shRNA-containing vector, pCMV-dR8.2 and pMD2.G into HEK 293T cells using FuGene 6 transfection reagent (Promega). Virus-containing medium were collected 48 h after transfection and used to transiently transduce HEK293T cells stably expressing FLAG-FKBP12_NLS for 48 h. Lentiviral shRNAs targeting human DCAF16 or DTL were in pLKO.1 vector and purchased from Sigma. The sequences of shRNAs is described below.
Cells were collected and lysed in 1% NP-40 lysis buffer (25 mM Tris-HCl pH 7.4, 150 mM NaCl, 10% glycerol, 1% Nonidet P-40) with complete protease inhibitor cocktail (Roche). Cells were vortexed and sonicated for 5 pulses (40%, 4). The supernatant was collected after centrifugation at 16,000 g for 10 min at 4° C. Protein concentration was determined by DC assay (Bio-Rad). Protein lysate was heated at 95° C. for 5 min in 1× Laemmli sample buffer. Proteins were resolved by 12% or 14% Novex Tris-Glycine Mini Gels (Invitrogen) and transferred to polyvinylidene fluoride (PVDF) membrane (0.2 Bio-Rad). The membrane was blocked with 5% BSA in TBST buffer (0.1% Tween 20, 20 mM Tris-HCl 7.6, 150 mM NaCl) at room temperature for 1 h. The antibody was diluted with fresh 5% BSA in TBST buffer (1:10000 dilution for FLAG, HA and β-Actin, 1:1000 dilution for others) and incubated with membrane (1 h room temperature for FLAG, HA and β-Actin, overnight 4° C. for others). Membrane was washed three times with TBST buffer and incubated with secondary antibody (1:5000 dilution in 5% BSA in TBST) at room temperature for 1 h. Membrane was washed three times with TBST buffer. The chemiluminescence signal in membrane was recorded after developing in ECL or ECL plus western blotting detection reagent using CL-XPosure film (Thermo Scientific). Relative band intensities were quantified using ImageJ.
A general note: Immunoblotting shows a protein as a band on a membrane.

FLAG-FKBP12_NLS, sequence (P62942 whole entry): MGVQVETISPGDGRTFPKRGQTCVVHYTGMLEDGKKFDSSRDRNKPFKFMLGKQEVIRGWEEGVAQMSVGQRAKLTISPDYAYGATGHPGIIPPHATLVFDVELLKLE
T1 sequence (P25440 whole entry): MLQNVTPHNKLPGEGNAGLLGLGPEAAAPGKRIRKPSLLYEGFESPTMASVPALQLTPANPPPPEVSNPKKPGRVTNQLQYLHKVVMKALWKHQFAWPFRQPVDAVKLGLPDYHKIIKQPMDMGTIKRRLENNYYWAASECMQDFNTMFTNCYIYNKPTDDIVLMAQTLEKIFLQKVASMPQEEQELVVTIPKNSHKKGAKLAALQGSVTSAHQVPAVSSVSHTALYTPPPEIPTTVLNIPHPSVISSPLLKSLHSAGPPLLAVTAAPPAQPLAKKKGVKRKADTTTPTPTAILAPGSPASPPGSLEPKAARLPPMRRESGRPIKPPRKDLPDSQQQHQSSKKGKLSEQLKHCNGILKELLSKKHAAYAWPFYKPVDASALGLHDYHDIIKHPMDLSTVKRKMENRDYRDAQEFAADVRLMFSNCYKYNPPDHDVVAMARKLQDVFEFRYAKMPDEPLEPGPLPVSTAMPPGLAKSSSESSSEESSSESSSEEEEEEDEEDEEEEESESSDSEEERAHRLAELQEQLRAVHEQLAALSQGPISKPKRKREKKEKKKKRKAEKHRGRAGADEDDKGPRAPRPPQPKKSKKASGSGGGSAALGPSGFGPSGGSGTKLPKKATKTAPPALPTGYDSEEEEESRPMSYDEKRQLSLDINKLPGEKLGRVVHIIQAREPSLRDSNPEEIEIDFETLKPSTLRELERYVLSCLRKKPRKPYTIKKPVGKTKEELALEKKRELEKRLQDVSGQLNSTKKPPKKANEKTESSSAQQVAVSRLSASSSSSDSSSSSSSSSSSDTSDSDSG

`Cc1sc2c(c1C)C(c1ccc(Cl)cc1)=N[C@@H](CC(=O)NCCOCCOCCNC(=O)COc1ccc3c(c1)CCCN3C(=O)CCl)c1nnc(C)n1-2` [KB02-JQ1, (S)-2-((1-(2-chloroacetyl)-1,2,3,4-tetrahydroquinolin-6-yl)oxy)-N-(2-(2-(2-(2-(4-(4-chlorophenyl)-2,3,9-trimethyl-6H-thieno[3,2-f][1,2,4]triazolo[4,3-a][1,4]diazepin-6-yl)acetamido)ethoxy)ethoxy)ethyl)acetamide]: the “BRD2 abundance (MS-based proteomics)” value in assay [1] is “appeared to be stabilized”.

For `CCC(C)(C)C(=O)C(=O)N1CCCC[C@H]1C(=O)O[C@H](CCc1ccc(OC)c(OC)c1)c1cccc(NC(=O)CCOCCOCCNC(=O)COc2ccc3c(c2)CCCN3C(=O)CCl)c1` [KB02-SLF, (R)-1-(3-(3-(2-(2-(2-((1-(2-chloroacetyl)-1,2,3,4-tetrahydroquinolin-6-yl)oxy)acetamido)ethoxy)ethoxy)propanamido)phenyl)-3-(3,4-dimethoxyphenyl)propyl (S)-1-(3,3-dimethyl-2-oxopentanoyl)piperidine-2-carboxylate], the “concentration for degradation of FKBP12_NLS” value in assay [2] is 0.5 to 2 µM. The “nuclear FKBP12 (FKBP12_NLS) protein level” value in assay [2] (2 μM, 8 or 24 h) is reported as “substantial reduction in nuclear FKBP12”. Also, in assay [2] (KB02-SLF 2 μM, 8 h), the “KB02-SLF-mediated degradation of FKBP12_NLS after shRNA knockdown of DCAF16” value is on record as “substantially prevented KB02-SLF-mediated degradation of FKBP12_NLS” and the “KB02-SLF-mediated degradation of FKBP12_NLS after shRNA knockdown of DTL” value is “not DTL”. Moreover, the “time frame across which the reduction in nuclear FKBP12 was sustained” value in assay [2] (KB02-SLF, FIG. 5A) lay within 4 to 72 h. In assay [2] (reductions in activity at higher concentrations, in µM), the “concentration across which loss of FKBP12_NLS was promoted” value is reported as 0.5-5.

For the origin of these results see patent US11691984B2, “Compounds and methods for DCAF-mediated protein degradation” (The Scripps Research Institute, priority 2018, dated 2023).
